Results reported in publication PMC13104648 (Acta Pharmaceutica Sinica. B, 2025).
Blank lines part the entries; values can stand above or below the compound they belong to.

Experiments:
[1] = test system: Sprague–Dawley rats; test: Arterial blood pressure in anesthetized rats; conditions: 55 nmol/kg i.v.
[2] = test system: CHO-hNTSR1 cells; test: Electric cell-substrate impedance sensing; assay type: cell-based, Chinese hamster; conditions: 10 μmol/L; for maximum change factor (normalized resistance): 4000 Hz, n = 3 in duplicate
[3] = biological target: hNTSR1 (Gα13) (Homo sapiens, UniProt P30989); test: BRET^2 G protein dissociation, allosteric modulator assay; assay type: cell-based; conditions: pre-treatment up to 100 μmol/L
Chain of hNTSR1 (Gα13) (P30989 whole entry): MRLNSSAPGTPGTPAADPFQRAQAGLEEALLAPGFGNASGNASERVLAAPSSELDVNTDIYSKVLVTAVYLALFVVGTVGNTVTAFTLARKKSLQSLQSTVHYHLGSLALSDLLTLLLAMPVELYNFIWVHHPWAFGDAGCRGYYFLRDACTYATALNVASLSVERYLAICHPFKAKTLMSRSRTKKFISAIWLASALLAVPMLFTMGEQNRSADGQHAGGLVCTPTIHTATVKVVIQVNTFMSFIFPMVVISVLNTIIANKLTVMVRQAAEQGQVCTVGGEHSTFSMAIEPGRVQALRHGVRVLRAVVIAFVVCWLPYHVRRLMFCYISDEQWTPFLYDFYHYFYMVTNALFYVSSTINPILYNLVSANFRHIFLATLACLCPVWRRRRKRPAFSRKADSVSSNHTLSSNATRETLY

[4] = biological target: NTSR1 (β-arrestin 1) (Homo sapiens, UniProt P30989); test: BRET^2 βarr recruitment, allosteric modulator assay; assay type: cell-based; conditions: pre-treatment up to 100 μmol/L
Chain of NTSR1 (β-arrestin 1) (P30989 whole entry): as above

[5] = biological target: NTSR1 (β-arrestin 2) (Homo sapiens, UniProt P30989); test: as above; assay type: cell-based; conditions: pre-treatment up to 100 μmol/L
Chain of NTSR1 (β-arrestin 2) (P30989 whole entry): as above

[6] = test system: mice; conditions: cited from earlier work
[7] = test system: rats; conditions: chronic neuropathic and inflammatory pain paradigms; cited from earlier work
[8] = test system: 318 distinct 7TMRs; test: PRESTO-Tango GPCRome panel; assay type: cell-based, human; conditions: 10 μmol/L
[9] = anesthetized male rats, mean ± SEM
[10] = anesthetized male rats, mean ± SEM, n = 5

Compound: CCCCCCCCCCCCCCCC(=O)N[C@@H](C)C(=O)N[C@@H](CCCNC(=N)N)C(=O)N[C@@H](CCCCN)C(=O)N[C@@H](CCCCN)C(=O)N[C@@H](CO)C(=O)N[C@@H](CC(C)C)C(=O)N[C@@H](CCC(N)=O)C(=O)N[C@@H](CO)C(=O)N[C@@H](CC(C)C)C(=O)N[C@@H](CCC(N)=O)C(=O)N[C@@H](CO)C(=O)N[C@H](C(=O)N[C@@H](C)C(=O)N[C@@H](Cc1c[nH]cn1)C(N)=O)[C@@H](C)O [[Ala^13]PP-001]
- delay in hypotensive response [1]: 40 s
- time of minimum ΔMABP post-injection [1]: 93 s
- ΔMABP lower than that of PP-001 at 300 s [1]: 19 ± 5 mm Hg
- minimum ΔMABP of first decline [1, 9]: −36 ± 4 mm Hg
- ΔMABP 300 s post-injection [1, 9]: −44 ± 2 mm Hg
- ΔMABP 140 s post-administration ([1]; n = 5): −31 ± 4 mm Hg
- time of maximum change factor post-stimulation [2]: 1962 s
- maximum change factor (normalized resistance) ([2]; mean ± SEM): 1.06 ± 0.02
- change factor at 3000 s (50 min) post-stimulation ([2]; mean ± SEM, n = 3): 1.05 ± 0.03

Compound: CC[C@H](C)[C@H](NC(=O)[C@H](Cc1ccc(O)cc1)NC(=O)[C@@H]1CCCN1C(=O)[C@H](CCCNC(=N)N)NC(=O)[C@@H](N)CCCNC(=N)N)C(=O)N[C@@H](CC(C)C)C(=O)O [NT(8-13), Neurotensin (8-13), reference compound]
- ΔMABP 20 s post-injection [1, 10]: −29 ± 3 mm Hg
- ΔMABP 75 s post-injection [1, 10]: −7 ± 3 mm Hg
- ΔMABP 200 s post-injection [1, 10]: −28 ± 6 mm Hg

- effect on potency or efficacy of NT, Gα13 [3]: not affected
- effect on potency or efficacy of NT, βarr1 [4]: not affected
- effect on potency or efficacy of NT, βarr2 [5]: not affected
Compound: CCCCCCCCCCCCCCCC(=O)O [Palmitate, palmitate]

Compound: CCCCCCCCCCCCCCCC(=O)N[C@@H](C)C(=O)N[C@@H](C)C(=O)N[C@@H](CCCCN)C(=O)N[C@@H](CCCCN)C(=O)N[C@@H](CO)C(=O)N[C@@H](CC(C)C)C(=O)N[C@@H](CCC(N)=O)C(=O)N[C@@H](CO)C(=O)N[C@@H](CC(C)C)C(=O)N[C@@H](CCC(N)=O)C(=O)N[C@@H](CO)C(=O)N[C@H](C(=O)N[C@H](C(=O)N[C@@H](Cc1c[nH]cn1)C(N)=O)C(C)C)[C@@H](C)O [[Ala^2]PP-001]
- change to MABP ([1]; n = 5): no change to MABP was observed
- resistance response profile [2]: completely inactive

Compound: COc1ccccc1C1CCN(c2nc(C3(F)CC3)nc3ccc(N(C)CCO)cc23)CC1 [SBI-553]
- hypotension [6]: does not induce hypotension in mice

Compound: CCCCCCCCCCCCCCCC(=O)N[C@@H](C)C(=O)N[C@@H](CCCNC(=N)N)C(=O)N[C@@H](CCCCN)C(=O)N[C@@H](CCCCN)C(=O)N[C@@H](CO)C(=O)N[C@@H](CC(C)C)C(=O)N[C@@H](CCC(N)=O)C(=O)N[C@@H](CO)C(=O)N[C@@H](CC(C)C)C(=O)N[C@@H](CCC(N)=O)C(=O)N[C@@H](CO)C(=O)N[C@H](C(=O)N[C@H](C(=O)N[C@@H](Cc1c[nH]cn1)C(N)=O)C(C)C)[C@@H](C)O [PP-001]
- reversing nociceptive behaviors [7]: effective in reversing nociceptive behaviors in rats
- βarr2 recruitment across a panel of 318 distinct 7TMRs [8]: did not induce βarr2 recruitment
- delay in hypotensive response [1]: 40 s
- time of minimum ΔMABP post-injection [1]: 105 s
- minimum ΔMABP of first decline [1, 9]: −37 ± 4 mm Hg
- ΔMABP 300 s post-injection [1, 9]: −25 ± 3 mm Hg
- baseline-to-baseline timeframe [2]: 45 min
- time of maximum change factor post-stimulation [2]: 1110 s
- maximum change factor (normalized resistance) ([2]; mean ± SEM): 1.06 ± 0.01
- time at which the trace intercepts / returns to baseline ([2]; post-stimulation): 2700 s
